# From US5892113A, “Hydroxyethyl aminimides” (priority 1997, dated 1999)
# Molecular target: T1, HIV-1 protease (HIV-1 M:B_ARV2/SF2, UniProt P03369, C557X/C585X)
# T1 construct: aminobutyric acid at 67 and 95, thioester at 51-52; NovaBiochem kit
# Experiment: Fluorometric HIV-1 protease inhibition assay (NovaBiochem kit, fluorogenic substrate)
# Format: biochemical
# Protocol: The inhibition constant (Ki) of compound Ia is determined using HIV-1 protease kit supplied by NovaBiochem (cat. #10-39-0001, which supplies a solid phase synthesized analog of the protease, incorporating the unnatural residue aminobutyric acid in place of both cysteine residues 67 and 95, along with a thioester linkage in place of the normal peptide bond between residues 51-52). A fluorometric assay is performed using a fluorogenic substrate supplied by NovaBiochem (cat. #05-23-5216, Abz-Thr-Ile-Nle-Phe(NO2)-Gln-Arg-NH2). Initial rates of substrate hydrolysis are determined by following the increase in the fluorescence emission at 420 nm (excitation is at 325 nm) as the substrate is digested by the protease. The initial rates of substrate cleavage is determined in the absence and presence of compound Ia (up to a concentration of Ia=500 nM).
smiles,measurement,setting,value
"CC(C)(C)OC(=O)N[C@@H](Cc1ccccc1)[C@@H](O)C[N+](C)(Cc1ccccc1)[N-]C(=O)c1ccccc1 (single isomer, unassigned) [Ia]",mode of inhibition (Lineweaver-Burk analysis),initial rates of substrate cleavage in absence and presence of Ia (up to 500 nM),classical competitive inhibition
same,Ki,"read-out: inhibition constant (Ki), synthetic HIV-1 protease analog (NovaBiochem), substrate Abz-Thr-Ile-Nle-Phe(NO2)-Gln-Arg-NH2, replot of Lineweaver-Burk slopes, Ia up to 500 nM",137 nM
